Laboratory results from article PMC3961306, “Comparison of the Cancer Gene Targeting and Biochemical Selectivities of All Targeted Kinase Inhibitors Approved for Clinical Use” (PLoS ONE, 2014).
Like-named read-outs stand apart in the source and are kept apart here.

Experiments:
[1] = molecular target: panel of more than 300 wild-type and mutant kinases (313 kinase panel) (Homo sapiens, UniProt Q8N4C8); test: Kinase profiling in a biochemical assay panel (mobility shift assays and ELISA), %-inhibition at 1 μM; selectivity entropy; settings: kinase MINK; 1 μM
panel of more than 300 wild-type and mutant kinases (313 kinase panel) (Homo sapiens, UniProt Q8N4C8), sequence (Q8N4C8 whole entry, change not shown): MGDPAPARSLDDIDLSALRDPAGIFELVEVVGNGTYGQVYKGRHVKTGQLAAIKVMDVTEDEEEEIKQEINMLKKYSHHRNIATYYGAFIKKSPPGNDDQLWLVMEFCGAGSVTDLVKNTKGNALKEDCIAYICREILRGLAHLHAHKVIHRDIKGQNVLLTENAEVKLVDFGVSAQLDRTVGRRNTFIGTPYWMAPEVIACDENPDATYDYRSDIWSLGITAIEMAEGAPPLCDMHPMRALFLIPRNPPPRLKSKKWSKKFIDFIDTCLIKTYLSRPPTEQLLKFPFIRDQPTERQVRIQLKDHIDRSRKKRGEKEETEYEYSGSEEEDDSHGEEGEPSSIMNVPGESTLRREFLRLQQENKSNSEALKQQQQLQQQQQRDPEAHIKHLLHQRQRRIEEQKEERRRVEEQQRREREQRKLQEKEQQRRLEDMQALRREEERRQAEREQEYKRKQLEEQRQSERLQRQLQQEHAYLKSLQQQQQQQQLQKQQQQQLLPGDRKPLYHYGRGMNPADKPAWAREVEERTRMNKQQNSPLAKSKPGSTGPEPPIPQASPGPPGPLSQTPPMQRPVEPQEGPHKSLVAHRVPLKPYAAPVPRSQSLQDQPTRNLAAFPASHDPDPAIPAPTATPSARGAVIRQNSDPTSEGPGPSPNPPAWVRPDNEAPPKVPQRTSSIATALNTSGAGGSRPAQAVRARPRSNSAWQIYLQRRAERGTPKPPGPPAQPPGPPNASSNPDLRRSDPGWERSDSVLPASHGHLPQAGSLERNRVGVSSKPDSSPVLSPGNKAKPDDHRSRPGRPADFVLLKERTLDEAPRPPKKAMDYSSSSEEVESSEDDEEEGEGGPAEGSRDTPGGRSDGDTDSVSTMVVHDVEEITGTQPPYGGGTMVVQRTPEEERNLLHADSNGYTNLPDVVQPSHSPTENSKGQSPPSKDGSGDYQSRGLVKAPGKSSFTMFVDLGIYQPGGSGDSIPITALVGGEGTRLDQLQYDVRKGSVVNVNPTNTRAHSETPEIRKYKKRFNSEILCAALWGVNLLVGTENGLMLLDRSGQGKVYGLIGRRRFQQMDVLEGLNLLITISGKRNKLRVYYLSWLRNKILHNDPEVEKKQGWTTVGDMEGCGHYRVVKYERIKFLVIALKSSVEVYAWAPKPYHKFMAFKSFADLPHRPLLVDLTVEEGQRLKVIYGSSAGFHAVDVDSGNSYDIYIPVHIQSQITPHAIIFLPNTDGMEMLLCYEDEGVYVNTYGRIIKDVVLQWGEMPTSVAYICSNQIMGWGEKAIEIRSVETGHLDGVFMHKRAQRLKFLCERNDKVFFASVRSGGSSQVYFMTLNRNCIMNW

[2] = system: forty-four human cancer cell lines; test: Cell proliferation assay (ATPlite, 72 hours) in the 44 cell line Oncolines panel; type: cell-based; settings: for IC50: Homo sapiens
[3] = molecular target: panel of more than 300 wild-type and mutant kinases (313 kinase panel) (Homo sapiens, UniProt P04049); test: Kinase profiling in a biochemical assay panel (mobility shift assays and ELISA), %-inhibition at 1 μM; selectivity entropy; settings: kinase RAF1; 1 μM
panel of more than 300 wild-type and mutant kinases (313 kinase panel) (Homo sapiens, UniProt P04049), sequence (P04049 whole entry, change not shown): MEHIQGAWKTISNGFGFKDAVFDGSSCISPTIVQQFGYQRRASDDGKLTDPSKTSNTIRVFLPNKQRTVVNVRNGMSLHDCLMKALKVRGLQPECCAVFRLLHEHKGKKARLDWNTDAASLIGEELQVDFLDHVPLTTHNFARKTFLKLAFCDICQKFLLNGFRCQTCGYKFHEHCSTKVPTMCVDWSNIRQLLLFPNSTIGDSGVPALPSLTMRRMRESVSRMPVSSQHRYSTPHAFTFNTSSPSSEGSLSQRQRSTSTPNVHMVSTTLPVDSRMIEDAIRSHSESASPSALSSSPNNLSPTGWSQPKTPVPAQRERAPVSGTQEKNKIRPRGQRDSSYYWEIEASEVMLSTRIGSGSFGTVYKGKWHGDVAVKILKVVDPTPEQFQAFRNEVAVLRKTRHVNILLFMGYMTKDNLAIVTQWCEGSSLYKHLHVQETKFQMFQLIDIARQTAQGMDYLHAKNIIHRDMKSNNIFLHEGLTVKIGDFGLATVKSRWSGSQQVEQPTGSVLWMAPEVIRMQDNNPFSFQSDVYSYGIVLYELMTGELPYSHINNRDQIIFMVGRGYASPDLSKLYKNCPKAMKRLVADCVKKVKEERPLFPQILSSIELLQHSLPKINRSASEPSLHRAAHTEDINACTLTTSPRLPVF

[4] = molecular target: T1, panel of more than 300 wild-type and mutant kinases (313 kinase panel) (Homo sapiens, UniProt Q9UL54); test: as above; settings: kinase TAOK2; 1 μM
T1 sequence (Q9UL54 1-1235): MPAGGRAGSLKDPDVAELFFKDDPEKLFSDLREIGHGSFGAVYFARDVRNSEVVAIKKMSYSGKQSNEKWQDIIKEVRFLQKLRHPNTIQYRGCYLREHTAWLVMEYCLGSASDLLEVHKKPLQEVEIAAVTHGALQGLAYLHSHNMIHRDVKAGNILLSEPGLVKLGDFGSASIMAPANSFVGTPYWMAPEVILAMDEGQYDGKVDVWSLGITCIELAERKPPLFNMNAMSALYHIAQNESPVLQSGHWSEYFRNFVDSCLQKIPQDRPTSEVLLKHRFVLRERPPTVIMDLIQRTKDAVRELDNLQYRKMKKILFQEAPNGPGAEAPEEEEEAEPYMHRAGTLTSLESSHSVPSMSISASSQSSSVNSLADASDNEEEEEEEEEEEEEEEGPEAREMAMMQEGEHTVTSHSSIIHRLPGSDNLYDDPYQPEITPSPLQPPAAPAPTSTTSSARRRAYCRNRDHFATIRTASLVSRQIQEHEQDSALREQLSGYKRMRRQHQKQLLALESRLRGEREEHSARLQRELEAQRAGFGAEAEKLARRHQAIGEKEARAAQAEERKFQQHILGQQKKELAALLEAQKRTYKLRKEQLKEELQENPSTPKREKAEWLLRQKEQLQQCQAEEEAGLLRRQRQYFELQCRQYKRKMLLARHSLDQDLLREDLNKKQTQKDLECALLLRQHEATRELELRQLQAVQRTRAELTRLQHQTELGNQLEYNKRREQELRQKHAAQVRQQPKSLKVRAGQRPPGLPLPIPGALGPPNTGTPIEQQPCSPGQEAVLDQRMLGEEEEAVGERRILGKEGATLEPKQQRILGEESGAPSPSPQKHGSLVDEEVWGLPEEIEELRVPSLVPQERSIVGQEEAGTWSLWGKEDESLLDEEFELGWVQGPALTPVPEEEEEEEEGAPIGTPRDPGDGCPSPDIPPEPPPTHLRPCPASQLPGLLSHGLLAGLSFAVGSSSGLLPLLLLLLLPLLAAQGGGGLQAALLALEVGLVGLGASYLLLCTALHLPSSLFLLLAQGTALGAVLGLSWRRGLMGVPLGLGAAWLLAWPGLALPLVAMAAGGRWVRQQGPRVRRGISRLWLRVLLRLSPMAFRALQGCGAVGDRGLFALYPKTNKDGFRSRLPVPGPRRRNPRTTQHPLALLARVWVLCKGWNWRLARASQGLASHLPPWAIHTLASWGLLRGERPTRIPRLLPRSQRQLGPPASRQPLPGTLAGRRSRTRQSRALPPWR

[5] = molecular target: panel of more than 300 wild-type and mutant kinases (313 kinase panel) (Homo sapiens, UniProt Q04912); test: as above; settings: kinase RON; 1 μM
[6] = molecular target: panel of more than 300 wild-type and mutant kinases (313 kinase panel) (Homo sapiens, UniProt Q9HC98); test: as above; settings: kinase NEK6; 1 μM
[7] = 4-4 cell, read-out: cell panel IC50, J82
[8] = 4-4 cell, read-out: cell panel IC50, PA-1
[9] = 4-4 cell, read-out: cell panel IC50, SJCRH30
[10] = 4-4 cell, read-out: cell panel IC50, SR
[11] = 769-P, read-out: cell panel IC50, 769-P
[12] = 786-0, read-out: cell panel IC50, 786-0
[13] = A 172, read-out: cell panel IC50, A-172
[14] = A204, read-out: cell panel IC50, A-204
[15] = A498, read-out: cell panel IC50, A-498
[16] = A549, read-out: cell panel IC50, A-549
[17] = A-375, read-out: cell panel IC50, A375
[18] = A-427, read-out: cell panel IC50, A-427
[19] = ACHN, read-out: cell panel IC50, ACHN
[20] = AN3-CA, read-out: cell panel IC50, AN3 CA
[21] = AU565, read-out: cell panel IC50, AU-565
[22] = BT-20, read-out: cell panel IC50, BT-20
[23] = BT-549, read-out: cell panel IC50, BT-549
[24] = BXPC-3, read-out: cell panel IC50, BxPC-3
[25] = C-33-A, read-out: cell panel IC50, C-33 A
[26] = CAL-27, read-out: cell panel IC50, CAL 27
[27] = CCRF-CEM, read-out: cell panel IC50, CCRF-CEM
[28] = DLD-1, read-out: cell panel IC50, DLD-1
[29] = FaDu, read-out: cell panel IC50, FaDu
[30] = HCT-15, read-out: cell panel IC50, HCT-15
[31] = HCT-116, read-out: cell panel IC50, HCT-116
[32] = Hs-578T, read-out: cell panel IC50, Hs 578T
[33] = Jurkat E6.1, read-out: cell panel IC50, Jurkat E6.1
[34] = K562, read-out: cell panel IC50, K-562
[35] = LS174T, read-out: cell panel IC50, LS 174T
[36] = LoVo, read-out: cell panel IC50, LoVo
[37] = MG-63, read-out: cell panel IC50, MG-63
[38] = MOLT-4, read-out: cell panel IC50, MOLT-4
[39] = MeWo, read-out: cell panel IC50, MeWo
[40] = NCI-H82, read-out: cell panel IC50, NCI-H82
[41] = NCI-H460, read-out: cell panel IC50, NCI-H460
[42] = OVCAR-3, read-out: cell panel IC50, OVCAR-3
[43] = RPMI-7951, read-out: cell panel IC50, RPMI-7951
[44] = SHP77, read-out: cell panel IC50, SHP-77
[45] = SK-N-AS, read-out: cell panel IC50, SK-N-AS
[46] = SW48, read-out: cell panel IC50, SW48
[47] = SW480, read-out: cell panel IC50, SW480
[48] = SW-620, read-out: cell panel IC50, SW620
[49] = U2OS, read-out: cell panel IC50, U-2 OS
[50] = U-87 MG, 72 h, read-out: IC50 in cell proliferation assay (table S5 cellpanel data)

## Cc1nc(Nc2ncc(C(=O)Nc3c(C)cccc3Cl)s2)cc(N2CCN(CCO)CC2)n1 [dasatinib]
[1]
  %-inhibition of MINK: 40%
[2]; 44 cell line panel, Figure 2D
  Difference between the average IC50 in the cell panel and the most potent IC50: more than 1000 fold
[2]; [7]
  IC50: 2500 nM
[2]; [8]
  IC50: 55 nM
[2]; [9]
  IC50: 1290 nM
[2]; [10]
  IC50: 3000 nM
[2]; [11]
  IC50: 55 nM
[2]; [12]
  IC50: 359 nM
[2]; [13]
  IC50: 99 nM
[2]; [14]
  IC50: 21 nM
[2]; [15]
  IC50: 681 nM
[2]; [16]
  IC50: 10200 nM
[2]; [17]
  IC50: 518 nM
[2]; [18]
  IC50: 2180 nM
[2]; [19]
  IC50: 48 nM
[2]; [20]
  IC50: 3550 nM
[2]; [21]
  IC50: 7070 nM
[2]; [22]
  IC50: 9800 nM
[2]; [23]
  IC50: 143 nM
[2]; [24]
  IC50: 204 nM
[2]; [25]
  IC50: 9 nM
[2]; [26]
  IC50: 153 nM
[2]; [27]
  IC50: 7190 nM
[2]; [28]
  IC50: 3400 nM
[2]; [29]
  IC50: 446 nM
[2]; [30]
  IC50: 1680 nM
[2]; [31]
  IC50: 14200 nM
[2]; [32]
  IC50: 79 nM
[2]; [33]
  IC50: 2390 nM
[2]; [34]
  IC50: 0.47 nM
[2]; [35]
  IC50: 3500 nM
[2]; [36]
  IC50: 1580 nM
[2]; [37]
  IC50: > 10000 nM
[2]; [38]
  IC50: 862 nM
[2]; [39]
  IC50: 17000 nM
[2]; [40]
  IC50: 10300 nM
[2]; [41]
  IC50: 19000 nM
[2]; [42]
  IC50: 120 nM
[2]; [43]
  IC50: 34 nM
[2]; [44]
  IC50: > 31600 nM
[2]; [45]
  IC50: 636 nM
[2]; [46]
  IC50: > 31600 nM
[2]; [47]
  IC50: 2100 nM
[2]; [48]
  IC50: 12400 nM
[2]; [49]
  IC50: 3230 nM
[2]; [50]
  IC50: 14900 nM

## Cc1ccc(C(=O)Nc2ccc(CN3CCN(C)CC3)c(C(F)(F)F)c2)cc1C#Cc1cnc2cccnn12 [ponatinib]
[3]
  %-inhibition of RAF1: 96%
[4]
  %-inhibition of TAOK2: 74%
[1]
  %-inhibition of MINK: 80%
[5]
  %-inhibition of RON: 39%
[6]
  %-inhibition of NEK6: -10%
[2]; [7]
  IC50: 1530 nM
[2]; [8]
  IC50: 814 nM
[2]; [9]
  IC50: 1110 nM
[2]; [10]
  IC50: 836 nM
[2]; [11]
  IC50: 1800 nM
[2]; [12]
  IC50: 1870 nM
[2]; [13]
  IC50: 626 nM
[2]; [14]
  IC50: 92 nM
[2]; [15]
  IC50: 1320 nM
[2]; [16]
  IC50: 1150 nM
[2]; [17]
  IC50: 1140 nM
[2]; [18]
  IC50: 352 nM
[2]; [20]
  IC50: 124 nM
[2]; [21]
  IC50: 1420 nM
[2]; [22]
  IC50: 5120 nM
[2]; [23]
  IC50: 1850 nM
[2]; [24]
  IC50: 817 nM
[2]; [25]
  IC50: 1000 nM
[2]; [26]
  IC50: 1720 nM
[2]; [27]
  IC50: 2250 nM
[2]; [28]
  IC50: 1130 nM
[2]; [29]
  IC50: 1110 nM
[2]; [30]
  IC50: 913 nM
[2]; [31]
  IC50: 1210 nM
[2]; [32]
  IC50: 1180 nM
[2]; [33]
  IC50: 403 nM
[2]; [34]
  IC50: 6.5 nM
[2]; [35]
  IC50: 2050 nM
[2]; [36]
  IC50: 380 nM
[2]; [37]
  IC50: 2480 nM
[2]; [38]
  IC50: 977 nM
[2]; [39]
  IC50: 2220 nM
[2]; [40]
  IC50: 1100 nM
[2]; [41]
  IC50: 1430 nM
[2]; [42]
  IC50: 2950 nM
[2]; [43]
  IC50: 1150 nM
[2]; [44]
  IC50: 6490 nM
[2]; [45]
  IC50: 1080 nM
[2]; [46]
  IC50: 1550 nM
[2]; [47]
  IC50: 2170 nM
[2]; [48]
  IC50: 799 nM
[2]; [49]
  IC50: 1120 nM
[2]; [50]
  IC50: 3100 nM

## CCN(CC)CCNC(=O)c1c(C)[nH]c(/C=C2\C(=O)Nc3ccc(F)cc32)c1C [sunitinib]
[5]
  %-inhibition of RON: 22%
[2]; [7]
  IC50: 3500 nM
[2]; [8]
  IC50: 1310 nM
[2]; [9]
  IC50: 3140 nM
[2]; [10]
  IC50: 527 nM
[2]; [11]
  IC50: 2660 nM
[2]; [12]
  IC50: 2620 nM
[2]; [13]
  IC50: 3280 nM
[2]; [14]
  IC50: 4080 nM
[2]; [15]
  IC50: 1970 nM
[2]; [16]
  IC50: 2260 nM
[2]; [17]
  IC50: 1550 nM
[2]; [18]
  IC50: 1060 nM
[2]; [19]
  IC50: 1320 nM
[2]; [20]
  IC50: 1510 nM
[2]; [21]
  IC50: 3960 nM
[2]; [22]
  IC50: 13200 nM
[2]; [23]
  IC50: 4840 nM
[2]; [24]
  IC50: 2290 nM
[2]; [25]
  IC50: 1980 nM
[2]; [26]
  IC50: 3080 nM
[2]; [27]
  IC50: 3210 nM
[2]; [28]
  IC50: 3130 nM
[2]; [29]
  IC50: 2000 nM
[2]; [30]
  IC50: 2110 nM
[2]; [31]
  IC50: 2680 nM
[2]; [32]
  IC50: 3480 nM
[2]; [33]
  IC50: 1060 nM
[2]; [34]
  IC50: 2090 nM
[2]; [35]
  IC50: 3520 nM
[2]; [36]
  IC50: 962 nM
[2]; [37]
  IC50: 3360 nM
[2]; [38]
  IC50: 828 nM
[2]; [39]
  IC50: 3420 nM
[2]; [40]
  IC50: 2280 nM
[2]; [41]
  IC50: 3430 nM
[2]; [42]
  IC50: 8630 nM
[2]; [43]
  IC50: 3670 nM
[2]; [44]
  IC50: 5700 nM
[2]; [45]
  IC50: 1860 nM
[2]; [46]
  IC50: 3700 nM
[2]; [47]
  IC50: 5650 nM
[2]; [48]
  IC50: 2540 nM
[2]; [50]
  IC50: 5750 nM
